Source: patent publication US20230355594A1, “TOPICAL OPHTHALMOLOGICAL COMPOSITIONS” (ADS THERAPEUTICS LLC, priority 2020, published 2023)
Several values for one entry are separate records, joined by “and”; a condition that tells them apart may be missing. Equal entries are not always repeated. Where two headings read alike, the source gives them in different places.

Conditions: for Atropine concentraion, Observed stable concentration after 10X serial dilution of the saturating concentration: successive 10X dilutions
[1] = 99.25% F6H8, 0.75% phenylethyl alcohol

With `CN1[C@@H]2CC[C@H]1C[C@@H](OC(=O)C(CO)c1ccccc1)C2` (stereo partly shown) [atropine] the “Atropine concentraion, Measured saturating concentraion by HPLC/UV” value (“Atropine concentraion … by HPLC/UV” below) (98.00% F6H8, 2.00% isopropanol) was 0.153 w/w %, the “Atropine concentraion … by HPLC/UV” value (99.25% F6H8, 0.75% ethanol) was 0.108 w/w % and the “Atropine concentraion, Observed stable concentration after 10X serial dilution of the saturating concentration” value (99.25% F6H8, 0.75% ethanol) was 0.0108 w/w % and 0.00108 w/w % and 0.000108 w/w %. The “Atropine concentraion … by HPLC/UV” value (99.25% F6H8, 0.75% isopropanol) was 0.082 w/w %, the “Atropine concentraion, Observed stable concentration after 10X serial dilution of the saturating concentration” value (99.25% F6H8, 0.75% isopropanol) was 0.0082 w/w % and 0.00082 w/w % and 0.000082 w/w % and the “Atropine concentraion … by HPLC/UV” value [1] was 0.085 w/w %. For the same compound, the “Atropine concentraion, Observed stable concentration after 10X serial dilution of the saturating concentration” value [1] was 0.0085 w/w % and 0.00085 w/w % and 0.000085 w/w %, the “Atropine concentraion … by HPLC/UV” value (99.50% F6H8, 0.50% ethanol) was 0.089 w/w % and the “Atropine concentraion … by HPLC/UV” value (99.50% F6H8, 0.50% isopropanol) was 0.055 w/w %. For the same compound, the “Atropine concentraion … by HPLC/UV” value (99.50% F6H8, 0.50% phenylethyl alcohol) was 0.055 w/w %, the “Atropine concentraion … by HPLC/UV” value (99.75% F6H8, 0.25% ethanol) was 0.031 w/w % and the “Atropine concentraion … by HPLC/UV” value (99.75% F6H8, 0.25% isopropanol) was 0.046 w/w %. The “Atropine concentraion … by HPLC/UV” value (99.75% F6H8, 0.25% phenylethyl alcohol) was 0.043 w/w %.
